Assay results published in patent US9833497B2, “Human originated EGF domain proteins and use of the same” (CHENGDU SOURCEBIO LIMITED-LIABILITY COMPANY, priority 2013, dated 2017).

Tests used:
Assay type in all cases: cell-based
Klebsiella pneumonia = assay: MIC against Gram-negative bacteria: Klebsiella pneumonia; settings: for MIC against K. pneumonia: Klebsiella pneumonia; for MIC (μg/mL) K. pneumonia / MIC: K. pneumonia
Summary of the method: (§1)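 The recombinant human-originated EGF domain proteins were serially diluted two-fold against bacteria at 5×10^5 CFU/mL in LB medium. After shaken incubation at 37° C, the lowest concentration with no bacterial growth was recorded as the MIC.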

Aeromonas hydrophila = assay: MIC against Gram-negative bacteria: Aeromonas hydrophila; settings: for MIC against A. hydrophila: Aeromonas hydrophila; for MIC (μg/mL) A. hydrophila / MIC: A. hydrophila
Summary of the method: as §1

Moraxella catarrhalis = assay: MIC against Gram-negative bacteria: Moraxella catarrhalis; settings: for MIC against M. catarrhalis: Moraxella catarrhalis; for MIC (μg/mL) M. catarrhalis / MIC: M. catarrhalis
Summary of the method: as §1

Citrobacter diversus = assay: MIC against Gram-negative bacteria: Citrobacter diversus; settings: for MIC against C. diversus: Citrobacter diversus; for MIC (μg/mL) C. diversus / MIC: C. diversus
Summary of the method: as §1

Pseudomonas aeruginosa = assay: MIC against Gram-negative bacteria: Pseudomonas aeruginosa; settings: for MIC against P. aeruginosa: Pseudomonas aeruginosa; for MIC (μg/mL) P. aeruginosa / MIC: P. aeruginosa
Summary of the method: as §1

Serratia marcescens = assay: MIC against Gram-negative bacteria: Serratia marcescens; settings: for MIC against S. marcescens: Serratia marcescens; for MIC (μg/mL) S. marcescens / MIC: S. marcescens
Summary of the method: as §1

Proteus vulgaris = assay: MIC against Gram-negative bacteria: Proteus vulgaris; settings: for MIC against P. vulgaris: Proteus vulgaris; for MIC (μg/mL) P. vulgaris / MIC: P. vulgaris
Summary of the method: as §1

Enterobacter cloacae = assay: MIC against Gram-negative bacteria: Enterobacter cloacae; settings: for MIC against E. cloacae: Enterobacter cloacae; for MIC (μg/mL) E. cloacae / MIC: E. cloacae
Summary of the method: as §1

E. coli DH5α = assay: Antibacterial activity: MIC and growth curve against E. coli DH5α in 96-well plate; settings: minimal inhibitory concentration against E. coli DH5α; 96-well plate, 5×10^5 CFU/mL, 37° C., judged after 8 h
Summary of the method: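 MIC taken as lowest protein level with no bacterial growth, tracked by A600 every 30 min during 37 °C, 175 rpm culture. Two-fold protein series 50-12.5 μg/mL final, triplicate wells, against 5×10^5 CFU/mL of LB-washed mid-log cells.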

E. coli BL21 = assay: MIC against Gram-negative bacteria: E. coli BL21; settings: for MIC against E. coli BL21 / MIC (μg/mL) E. coli BL21 / MIC: E. coli BL21
Summary of the method: as §1

Proteus mirabilis = assay: MIC against Gram-negative bacteria: Proteus mirabilis; settings: for MIC against P. mirabilis: Proteus mirabilis; for MIC (μg/mL) P. mirabilis / MIC: P. mirabilis
Summary of the method: as §1

[1] = 96-well plate, 5×10^5 CFU/mL, 37° C., 10 h
[2] = 10 h cultivation at 37° C., 5×10^5 CFU/mL
[3] = 10 h cultivation at 37° C., 5×10^5 CFU/mL, two-fold serial dilution
[4] = 5×10^5 CFU/mL, 10 h cultivation at 37° C.

PRT1256 (DVDECQDNNGGCQQICVNAMGSYECQCHSGFFLSDNQ; listed as Homo sapiens)
MIC against K. pneumonia (Klebsiella pneumonia; [1]): 12.5 µg/mL | MIC against A. hydrophila (Aeromonas hydrophila; [1]): 50 µg/mL | MIC against M. catarrhalis (Moraxella catarrhalis; [1]): 50 µg/mL | MIC against C. diversus (Citrobacter diversus; [1]): 12.5 µg/mL | MIC against P. aeruginosa (Pseudomonas aeruginosa; [1]): 25 µg/mL | MIC against S. marcescens (Serratia marcescens; [1]): 25 µg/mL | MIC against P. vulgaris (Proteus vulgaris; [1]): 50 µg/mL | MIC against E. cloacae (Enterobacter cloacae; [1]): 25 µg/mL | MIC (E. coli DH5α): 25 µg/mL | MIC against E. coli BL21 (E. coli BL21; [1]): 12.5 µg/mL | MIC against P. mirabilis (Proteus mirabilis; [1]): 12.5 µg/mL

PRT789 (YGNDCHQRCQCQNGATCDHVTGECRCPPGYTGAFCE; listed as Homo sapiens)
MIC (μg/mL) K. pneumonia (Klebsiella pneumonia; [2]): 12.5 µg/mL | MIC (μg/mL) A. hydrophila (Aeromonas hydrophila; [2]): 12.5 µg/mL | MIC (μg/mL) M. catarrhalis (Moraxella catarrhalis; [2]): 25 µg/mL | MIC (μg/mL) C. diversus (Citrobacter diversus; [2]): 25 µg/mL | MIC (μg/mL) P. aeruginosa (Pseudomonas aeruginosa; [2]): 25 µg/mL | MIC (μg/mL) S. marcescens (Serratia marcescens; [2]): 12.5 µg/mL | MIC (μg/mL) P. vulgaris (Proteus vulgaris; [2]): 25 µg/mL | MIC (μg/mL) E. cloacae (Enterobacter cloacae; [2]): 50 µg/mL | MIC (E. coli DH5α): 25 µg/mL | MIC (μg/mL) E. coli BL21 (E. coli BL21; [2]): 50 µg/mL | MIC (μg/mL) P. mirabilis (Proteus mirabilis; [2]): 50 µg/mL

PRT1157 (DVSEFSLVPCQNGTDCIKISNDVMCICSPIFTDLLCK; listed as Homo sapiens)
MIC K. pneumonia (Klebsiella pneumonia; [3]): 25 µg/mL | MIC A. hydrophila (Aeromonas hydrophila; [3]): 25 µg/mL | MIC M. catarrhalis (Moraxella catarrhalis; [3]): 25 µg/mL | MIC C. diversus (Citrobacter diversus; [3]): 50 µg/mL | MIC P. aeruginosa (Pseudomonas aeruginosa; [3]): 50 µg/mL | MIC S. marcescens (Serratia marcescens; [3]): 50 µg/mL | MIC P. vulgaris (Proteus vulgaris; [3]): 25 µg/mL | MIC E. cloacae (Enterobacter cloacae; [3]): 12.5 µg/mL | MIC (E. coli DH5α): 12.5 µg/mL | MIC E. coli BL21 (E. coli BL21; [3]): 25 µg/mL | MIC P. mirabilis (Proteus mirabilis; [3]): 12.5 µg/mL

PRT167 (TPNPCENDGVCTDIGGDFRCRCPAGFIDKTC; listed as Homo sapiens)
MIC (μg/mL) K. pneumonia (Klebsiella pneumonia; [2]): 50 µg/mL | MIC (μg/mL) A. hydrophila (Aeromonas hydrophila; [2]): 12.5 µg/mL | MIC (μg/mL) M. catarrhalis (Moraxella catarrhalis; [2]): 12.5 µg/mL | MIC (μg/mL) C. diversus (Citrobacter diversus; [2]): 25 µg/mL | MIC (μg/mL) P. aeruginosa (Pseudomonas aeruginosa; [2]): 12.5 µg/mL | MIC (μg/mL) S. marcescens (Serratia marcescens; [2]): 12.5 µg/mL | MIC (μg/mL) P. vulgaris (Proteus vulgaris; [2]): 25 µg/mL | MIC (μg/mL) E. cloacae (Enterobacter cloacae; [2]): 12.5 µg/mL | MIC (E. coli DH5α): 12.5 µg/mL | MIC (μg/mL) E. coli BL21 (E. coli BL21; [2]): 50 µg/mL | MIC (μg/mL) P. mirabilis (Proteus mirabilis; [2]): 25 µg/mL

PRT1198 (EHDECGSGQHNCDENAICTNTVQGHSCTCKPGYVGNGTICR; listed as Homo sapiens)
MIC against K. pneumonia (Klebsiella pneumonia; [1]): 50 µg/mL | MIC against A. hydrophila (Aeromonas hydrophila; [1]): 50 µg/mL | MIC against M. catarrhalis (Moraxella catarrhalis; [1]): 12.5 µg/mL | MIC against C. diversus (Citrobacter diversus; [1]): 25 µg/mL | MIC against P. aeruginosa (Pseudomonas aeruginosa; [1]): 25 µg/mL | MIC against S. marcescens (Serratia marcescens; [1]): 12.5 µg/mL | MIC against P. vulgaris (Proteus vulgaris; [1]): 25 µg/mL | MIC against E. cloacae (Enterobacter cloacae; [1]): 12.5 µg/mL | MIC (E. coli DH5α): 25 µg/mL | MIC against E. coli BL21 (E. coli BL21; [1]): 12.5 µg/mL | MIC against P. mirabilis (Proteus mirabilis; [1]): 50 µg/mL

PRT169 (CIRYPGCLHGTCQQPWQCNCQEGWGGLFC; listed as Homo sapiens)
MIC (μg/mL) K. pneumonia (Klebsiella pneumonia; [2]): 100 µg/mL | MIC (μg/mL) A. hydrophila (Aeromonas hydrophila; [2]): 25 µg/mL | MIC (μg/mL) M. catarrhalis (Moraxella catarrhalis; [2]): 25 µg/mL | MIC (μg/mL) C. diversus (Citrobacter diversus; [2]): 12.5 µg/mL | MIC (μg/mL) P. aeruginosa (Pseudomonas aeruginosa; [2]): 50 µg/mL | MIC (μg/mL) S. marcescens (Serratia marcescens; [2]): 12.5 µg/mL | MIC (μg/mL) P. vulgaris (Proteus vulgaris; [2]): 25 µg/mL | MIC (μg/mL) E. cloacae (Enterobacter cloacae; [2]): 50 µg/mL | MIC (E. coli DH5α): 50 µg/mL | MIC (μg/mL) E. coli BL21 (E. coli BL21; [2]): 12.5 µg/mL | MIC (μg/mL) P. mirabilis (Proteus mirabilis; [2]): 50 µg/mL

PRT317 (VTDYCQLVRYLCQNGRCIPTPGSCRCECNKGFQLDLRGECI; listed as Homo sapiens)
MIC (Klebsiella pneumonia; [2]): 50 µg/mL | MIC (Aeromonas hydrophila; [2]): 25 µg/mL | MIC (Moraxella catarrhalis; [2]): 25 µg/mL | MIC (Citrobacter diversus; [2]): 12.5 µg/mL | MIC (Pseudomonas aeruginosa; [2]): 12.5 µg/mL | MIC (Serratia marcescens; [2]): 12.5 µg/mL | MIC (Proteus vulgaris; [2]): 12.5 µg/mL | MIC (Enterobacter cloacae; [2]): 12.5 µg/mL | MIC (E. coli DH5α): 12.5 µg/mL | MIC (E. coli BL21; [2]): 50 µg/mL | MIC (Proteus mirabilis; [2]): 12.5 µg/mL

PRT1457 (CQCHGHADNCDTTSQPYRCLCSQESFTEGLHCDRCLPLYNDKPFRQGDQVYAFNCKP; listed as Homo sapiens)
MIC against K. pneumonia (Klebsiella pneumonia; [4]): 100 µg/mL | MIC against A. hydrophila (Aeromonas hydrophila; [4]): 12.5 µg/mL | MIC against M. catarrhalis (Moraxella catarrhalis; [4]): 12.5 µg/mL | MIC against C. diversus (Citrobacter diversus; [4]): 12.5 µg/mL | MIC against P. aeruginosa (Pseudomonas aeruginosa; [4]): 12.5 µg/mL | MIC against S. marcescens (Serratia marcescens; [4]): 25 µg/mL | MIC against P. vulgaris (Proteus vulgaris; [4]): 12.5 µg/mL | MIC against E. cloacae (Enterobacter cloacae; [4]): 12.5 µg/mL | MIC (E. coli DH5α): 12.5 µg/mL | MIC against E. coli BL21 (E. coli BL21; [4]): 25 µg/mL | MIC against P. mirabilis (Proteus mirabilis; [4]): 25 µg/mL

PRT1031 (MCVTYHNGTGYCKCPEGFLGEYCQ; listed as Homo sapiens)
MIC (Klebsiella pneumonia; 10 h cultivation at 37° C.): 50 µg/mL | MIC (Aeromonas hydrophila; 10 h cultivation at 37° C.): 50 µg/mL | MIC (Moraxella catarrhalis; 10 h cultivation at 37° C.): 12.5 µg/mL | MIC (Citrobacter diversus; 10 h cultivation at 37° C.): 25 µg/mL | MIC (Pseudomonas aeruginosa; 10 h cultivation at 37° C.): 12.5 µg/mL | MIC (Serratia marcescens; 10 h cultivation at 37° C.): 12.5 µg/mL | MIC (Proteus vulgaris; 10 h cultivation at 37° C.): 50 µg/mL | MIC (Enterobacter cloacae; 10 h cultivation at 37° C.): 12.5 µg/mL | MIC (E. coli DH5α): 12.5 µg/mL | MIC (E. coli BL21; 10 h cultivation at 37° C.): 50 µg/mL | MIC (Proteus mirabilis; 10 h cultivation at 37° C.): 12.5 µg/mL

PRT886 (RGPRCSQPGETCLNGGKCEAANGTEACVCGGAFVGPRCQ; listed as Homo sapiens)
MIC (μg/mL) K. pneumonia (Klebsiella pneumonia; [2]): 12.5 µg/mL | MIC (μg/mL) A. hydrophila (Aeromonas hydrophila; [2]): 12.5 µg/mL | MIC (μg/mL) M. catarrhalis (Moraxella catarrhalis; [2]): 12.5 µg/mL | MIC (μg/mL) C. diversus (Citrobacter diversus; [2]): 25 µg/mL | MIC (μg/mL) P. aeruginosa (Pseudomonas aeruginosa; [2]): 25 µg/mL | MIC (μg/mL) S. marcescens (Serratia marcescens; [2]): 25 µg/mL | MIC (μg/mL) P. vulgaris (Proteus vulgaris; [2]): 12.5 µg/mL | MIC (μg/mL) E. cloacae (Enterobacter cloacae; [2]): 25 µg/mL | MIC (E. coli DH5α): 25 µg/mL | MIC (μg/mL) E. coli BL21 (E. coli BL21; [2]): 12.5 µg/mL | MIC (μg/mL) P. mirabilis (Proteus mirabilis; [2]): 25 µg/mL
